{"source": "patent US20250319059A1", "about": "“Method for Treating Inflammatory Dysfunction of the Oral Mucosa” (VIVASOR, INC., priority 2022, published 2025)", "key": {"[1]": {"experiment": "Preliminary safety study of oral topical application of RTX in cats with gingival inflammation", "format": "in vivo, cat", "from_the_text": "This example provides safety data related to oral topical application of RTX. The primary objective of this study was to determine the initial tolerance of RTX when it is topically administered under anesthesia to the oral cavity of cats as a single treatment.\nFour cats were enrolled in this study. Each cat presented with mild to moderate gingival inflammation. The cats were allocated to two treatment groups according to severity of gingival inflammation. Group 1 cats, those with mild cases of gingivitis, were dosed on study Day 0 with a diluted RTX solution (12.5 μg/mL) applied topically to the maxillary and mandibular gingival tissue (buccal and palatal/lingual gingiva). Group 2 cats, those with current or recent historical moderate gingivitis, underwent the same treatment regimen on study Day 0 with the addition of application to the palatal and sublingual tissue.\nTotal dose of RTX tested per cat (diluted with sterile saline for a total volume of 2 mL) was: 17.5 μg (Group 1 cat), 23.75 μg (Group 1 cat), or 25 μg (Group 2 cats) RTX. One cat (pudding) received 17.5 μg RTX, one cat (Clank) received 23.75 μg RTX, and two cats (Forbes and Bianca) received 25 μg RTX. A single application of RTX was topically applied inside the mouth of each cat. The RTX was applied to the entire mouth.\nCats were anesthetized during treatment administration and for 30 minutes post-dose. Diphenhydramine (2 mg/kg, IM) was given as an anesthetic pre-treatment a minimum of 30 minutes prior to dosing. Induction was then performed using a combination of medetomidine 0.03 mg/kg, ketamine 5 mg/kg and butorphanol 0.2 mg/kg; dose volume 0.1 mL/kg, IM. Following application of a lidocaine hydrochloride spray to the larynx, intubation was performed and anesthesia was maintained using an isofluraneoxygen mixture. Standard anesthetic monitoring of vital signs was performed approximately every 5-10 minutes following dosing and precautions were taken to avoid low body temperature throughout the procedure. Cats remained under anesthesia for 30 minutes following dosing for additional monitoring. Upon removal from anesthetic, reversal drug atipamezole (0.2 mg/kg, IM) was administered.\nTo assess RTX tolerance, adverse event monitoring was performed using the following parameters: measurement of vital signs during anesthesia; physical examinations performed 0.25, 0.5, 1, 2, 3 and 4 hours following recovery from anesthesia (i.e. removal of endotracheal tube) as well as 1, 3 and 7 days post-dose in both the morning (AM) and afternoon (PM); twice daily clinical observations; daily food consumption measurement."}, "[2]": {"test_system": "oral pain associated with Feline Chronic Gingivostomatitis (FCGS)", "experiment": "Veterinarian Specific Outcome Measures (VSOM) in client-owned cats after oral topical RTX", "format": "in vivo, cat", "conditions": "for treatment success rate (VSOM): Day 28 vs Day 0, success = reduction of at least 2 in total VSOM score", "from_the_text": "(§1) Characterize the required dose of RTX applied topically to the oral mucosa for the control of pain associated with Feline Chronic Gingivostomatitis (FCGS).\n• Cat less than 12 months of age. • Cat's body weight less than 2 kg. • Cat unlikely to survive a 30-min anesthesia or sedation procedure. • Cat was unlikely to survive 4 weeks due to health issues other than oral pain. • Cat was unavailable for the entire study duration or was felt to be unsuitable by the Investigator for another reason. • Cat was participating in another study • Cat was pregnant or lactating. • Cat underwent an oral surgical procedure within 30 days prior to screening. • Cat received cannabinoid agonists such as cannabidiol (CBD) or anandamide within 28 days of starting the study. • Cat received oral corticosteroids within 1 week of starting the study, or injectable corticosteroids within 6 weeks of starting the study, and/or required medication or supplements during the study that may have interfered with the objective of the study.\nTwenty-eight cats, each weighing over 2 kg and over 12 months of age, were enrolled in this study. There was no apparent trend in the ages of cats enrolled in the study. Enrolled cats were physically examined (their physical exam findings such as general appearance, ears/eyes/mouth, abdominal/gastrointestinal, musculoskeletal, neurological urogenital, lymphatic etc. . . . were recorded). Their weight and vital signs were recorded as well.\nVeterinarian Specific Outcome Measures (VSOM)—Qualitative assessment of common stomatitis signalment was carried out prior to the beginning of treatment and on day 7, 14, and 28 (at the conclusion of treatment). Cats were assessed for drooling, pain while eating, pain at manipulation and swelling of the oral tissue. Each clinical sign was graded from 1 to 5 (1=no problem; 5=Impossible).\nTreatment success was defined as “a reduction of at least 2 in total VSOM score at Day 28 compared to VSOM score at Day 0. A decrease of less than 2, no change, or an increase in total score was defined as treatment failure. Cats presenting an increase in any individual VSOM were considered a treatment failure regardless of total VSOM score. […] The results of each cohort were not compared statistically; only descriptive statistics were generated due to the small number of cats per cohort and lack of randomization. However, there was no evidence of a relationship between treatment success and dose.\n(§2) Each animal was randomly assigned to one of three groups. Ten cats (group 1) were treated with 6.25 μg RTX (total) diluted with sterile saline for a total volume of 2 mL. Nine cats (group 2) were treated with 12.5 μg RTX (total) diluted with sterile saline for a total volume of 2 mL. Nine cats (group 3) were treated with 25 μg RTX (total) diluted with sterile saline for a total volume of 2 mL.\nRTX solution was applied using a clean cotton tip applicator directly to the visible lesions and adjacent tissue. The non-target dosing areas (caudal mouth/pharynx) were protected using a 4×4 gauze. Any targeted area was dried with sterile gauze or using the air-water syringe system. The saturated applicator for was gently pressed along the targeted areas for 10 seconds. Two to three coats per lesion were applied using the same cotton tip applicator. The area was allowed to dry for a few seconds before moving to the next lesion by exposing the area to the air or by gently using the air-water syringe system. […]"}, "[3]": {"test_system": "oral inflammation, Feline Chronic Gingivostomatitis (FCGS)", "experiment": "Stomatitis Disease Activity Index (SDAI) in client-owned cats after oral topical RTX", "format": "in vivo, cat", "conditions": "for treatment success (SDAI): success = 20% reduction in Day 28 SDAI vs Day 0 (post-hoc)", "experimental": "as §1\nStomatitis Disease Activity Index (SDAI)—This semi-quantitative assessment of oral inflammation was carried out prior to the beginning of treatment (day 0) and at day 28 (at the conclusion of treatment). Cats were assessed by owner for cat's interest in food and ability to eat, perceived comfort, grooming behavior, and activity levels. Each assessment was graded from 0 to 3 (0=no problem; 3=severe problems).\nThe average of the scores in Table 1 (total score divided by 4) were entered in the “owner evaluation” box on the initial SDAI (Stomatitis Disease Activity Index) tabulation sheet of Table 2. The rest of the questions on SDAI survey were completed by the veterinarian prior to the beginning of treatment (day 0) and at day 28 (at the conclusion of treatment). Each assessment was graded from 0 to 3 (0=no problem; 3=severe problems) as follows:\nTreatment success using the SDAI metric was defined post-hoc as a 20% reduction in the Day 28 SDAI compared to Day 0. Based on this definition, the percentage success was 100.0%, 80.0% and 44.4% for Cohorts 1, 2, and 3 respectively. The discrepancy in the success rate of Cohort 3 using the two metrics may be due to a higher baseline SDAI score.\nas §2\nRTX solution was applied using a clean cotton tip applicator directly to the visible lesions and adjacent tissue. The non-target dosing areas (caudal mouth/pharynx) were protected using a 4×4 gauze. Any targeted area was dried with sterile gauze or using the air-water syringe system. The saturated applicator for was gently pressed along the targeted areas for 10 seconds. Two to three coats per lesion were applied using the same cotton tip applicator. The area was allowed to dry for a few seconds before moving to the next lesion by exposing the area to the air or by gently using the air-water syringe system. When possible, and in absence of active bleeding due to manipulation, the RTX solution was allowed to drip into the gingival sulcus. If a target area was actively bleeding, an attempt to decrease or stop the bleeding was made before the RTX application."}, "[4]": {"experiment": "Safety variables of the FCGS effectiveness study (mortality, adverse events, clinical observations, body weight, ability to eat)", "format": "in vivo, cat", "from_the_text": "Mortality—No mortality, whether by natural death or euthanasia, occurred on this study.\nAn adverse event (AE) is defined as any undesirable event, expected or not, occurring to a study animal during the study, regardless of whether the event was considered to have a causal relation to a study treatment. Adverse events were reported at scheduled times during the study from Day 0 to the last day of the study. Certain adverse events, defined as serious adverse events, were reported in an expedited fashion to allow for possible study protocol modifications. A Serious Adverse Event (SAE) is defined as any medical occurrence that results in hospitalization longer than 24 hours or results in significant disability or morbidity or is life threatening or results in death.\nSeverity, causality and outcome of adverse events were recorded. Causality is a determination of whether there was a reasonable possibility that the drug may have caused or contributed to an AE. This relationship was described as “unlikely”, “possible”, “probable”, “definite”, or “unknown.”\nOn Day 0, starting once the RTX was applied to all oral lesions (time 0), clinical observations were carried out by the veterinarian at 10, 30, 45, 60 (±5 minutes), as well as at 2 hours (±10 minutes) and 4 hours (±15 minutes), post-treatment administration. Cats were observed past 4 hours post-treatment administration, as necessary or until resolution of abnormal observations.\nCats were weighed on days 0, 7, 14, and 28. Normal body weights were reported for 24 of the 28 cats. Two cats (one in Cohort 1 and one in Cohort 3) had abnormal (low) weight on day 0, but normal weight by day 28.\nCats' ability to eat was assessed on days 0, 7, 14, and 28. The majority of the cats' ability to eat improved throughout the study. On day 28, no differences in ability to eat were detected between cohorts."}, "[5]": {"molecular_target": "TRPV1 receptor (Homo sapiens, UniProt Q8NER1)", "sequence (Q8NER1 whole entry)": "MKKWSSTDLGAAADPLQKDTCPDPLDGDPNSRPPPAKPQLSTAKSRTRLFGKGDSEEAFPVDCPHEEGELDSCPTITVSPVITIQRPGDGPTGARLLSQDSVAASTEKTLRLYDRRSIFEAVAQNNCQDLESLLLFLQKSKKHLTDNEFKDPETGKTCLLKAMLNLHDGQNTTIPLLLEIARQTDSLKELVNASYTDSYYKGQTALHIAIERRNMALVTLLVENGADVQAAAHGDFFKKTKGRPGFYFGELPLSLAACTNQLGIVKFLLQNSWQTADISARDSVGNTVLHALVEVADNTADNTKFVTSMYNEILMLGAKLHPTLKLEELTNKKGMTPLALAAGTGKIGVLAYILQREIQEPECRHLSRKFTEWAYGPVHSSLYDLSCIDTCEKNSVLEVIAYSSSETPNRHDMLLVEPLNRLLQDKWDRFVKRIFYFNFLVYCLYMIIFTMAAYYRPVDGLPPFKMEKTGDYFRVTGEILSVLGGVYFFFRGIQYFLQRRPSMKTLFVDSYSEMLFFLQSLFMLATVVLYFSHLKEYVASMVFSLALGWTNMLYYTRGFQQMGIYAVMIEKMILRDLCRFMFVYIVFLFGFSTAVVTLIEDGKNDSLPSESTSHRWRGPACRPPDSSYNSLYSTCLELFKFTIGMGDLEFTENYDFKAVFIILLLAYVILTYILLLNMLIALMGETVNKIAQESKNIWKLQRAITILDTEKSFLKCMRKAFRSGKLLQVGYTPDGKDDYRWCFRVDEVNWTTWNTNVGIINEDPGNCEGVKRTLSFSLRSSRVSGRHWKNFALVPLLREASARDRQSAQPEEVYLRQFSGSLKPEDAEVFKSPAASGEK", "conditions": "cited from earlier work"}}, "data": [{"smiles": "C=C(C)[C@]12C[C@@H](C)[C@@]34O[C@](Cc5ccccc5)(O[C@@H]1[C@@H]3C=C(COC(=O)Cc1ccc(O)c(OC)c1)C[C@]1(O)C(=O)C(C)=C[C@@H]41)O2", "note": "[RTX, resiniferatoxin]", "values": [{"measurement": "time to resolution of mild increases in severity of gingivitis", "setting": "[1]; 2 cats, without intervention", "result": "≤ 3", "unit": "days post-dose"}, {"measurement": "food consumption", "setting": "[1]; 8 days following RTX administration", "result": "returned to normal by day seven"}, {"measurement": "body weight", "setting": "[1]; day 8 vs before administration", "result": "by day 8 the weight was back to normal"}, {"measurement": "tolerability", "setting": "[1]; single topical oral application 17.5-25 μg RTX (12.5 μg/mL), 4 cats, followed 8 days", "result": "well tolerated with only mild and transient adverse events"}, {"measurement": "control of pain and inflammation", "setting": "[2]; 6.25 μg RTX, 28 days", "result": "effective in controlling pain and inflammation for 28 days"}, {"measurement": "treatment success rate (VSOM)", "setting": "[2]; Cohort 1, 6.25 μg RTX topical oral", "result": 90.0, "unit": "%"}, {"measurement": "treatment success rate (VSOM)", "setting": "[2]; Cohort 2, 12.5 μg RTX topical oral", "result": 80.0, "unit": "%"}, {"measurement": "treatment success (VSOM) on Day 14", "setting": "[2]; Cohort 2, 12.5 μg RTX, Day 14", "result": "all cats in Cohort 2 were a success"}, {"measurement": "treatment success rate (VSOM)", "setting": "[2]; Cohort 3, 25 μg RTX topical oral", "result": 88.9, "unit": "%"}, {"measurement": "treatment success (SDAI)", "setting": "[3]; Cohort 1, 6.25 μg RTX", "result": 100.0, "unit": "%"}, {"measurement": "treatment success (SDAI)", "setting": "[3]; Cohort 2, 12.5 μg RTX", "result": 80.0, "unit": "%"}, {"measurement": "treatment success (SDAI)", "setting": "[3]; Cohort 3, 25 μg RTX", "result": 44.4, "unit": "%"}, {"measurement": "percent improvement in SDAI", "setting": "[3]; day 0 to day 28", "result": "about 60%"}, {"measurement": "severity of adverse events", "setting": "[4]; 6.25-25 μg RTX topical oral", "result": "Most of the AE were graded as mild"}, {"measurement": "serious adverse events (SAE) during in-life", "setting": "[4]; 28 cats, 6.25-25 μg RTX topical oral", "result": "One"}, {"measurement": "mortality", "setting": "[4]; 28 cats, 6.25-25 μg RTX topical oral, 28 days", "result": "No mortality"}, {"measurement": "signs of systemic RTX exposure", "setting": "[4]; application on inflamed oral mucosa", "result": "did not exhibit signs of systemic RTX exposure"}, {"measurement": "ability to eat", "setting": "[4]; assessed days 0, 7, 14, 28, all cohorts", "result": "most of the cats in all cohorts that completed the study had an improvement in the ability to eat"}, {"measurement": "cats with normal body weights", "setting": "[4]; weighed days 0, 7, 14, 28", "result": "24 of the 28"}, {"measurement": "time to resolution of clinical signs (panting, hypersalivation, tachycardia, restlessness) post-treatment", "setting": "[4]; without medical intervention", "result": "≤ 3", "unit": "h"}, {"measurement": "potency relative to capsaicin", "setting": "[5]; TRPV1 receptor agonist", "result": "1000-10,000 times"}, {"measurement": "Scoville scale", "setting": "[5]", "result": 16, "unit": "billion"}]}]}
